Blank lines part the entries; values can stand above or below the molecule they belong to. Calls of active or inactive are those of the source.
Assays:
[1] = biological target: Melanin-concentrating hormone receptor 1 (Homo sapiens, UniProt Q99705); test: Late-stage fluorescence-based counterscreen for antagonists of the G-protein coupled receptor 7 (GPR7): cell-based dose response assay to identify antagonists of the melanin-concentrating hormone receptor 1 (MCHR1). [Related pubchem assays (depositor defined):AID1861, AID1880, AID1952, AID2148, AID2251, AID2257, AID485339]; type: functional;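 note: stimulated with 30 nM MCH peptide agonist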
[2] = biological target: Neuropeptides B/W receptor type 1 (Homo sapiens, UniProt P48145); test: GPR7 antagonist potency, late-stage follow-up, cell-based, fluorescence, dose response (AID 463251); type: functional
[3] = biological target: T1, Scavenger receptor class B member 1 (Mus musculus, UniProt Q61009); test: inhibitors of SR-BI mediated HDL lipid uptake, dose response, ldlA[mSR-BI] cells, fluorescence, cherry pick (AID 493194); type: functional, cell-based;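 note: cellular uptake of fluorescent DiI-labeled HDL measured as cell fluorescence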
T1 sequence (Q61009 whole entry): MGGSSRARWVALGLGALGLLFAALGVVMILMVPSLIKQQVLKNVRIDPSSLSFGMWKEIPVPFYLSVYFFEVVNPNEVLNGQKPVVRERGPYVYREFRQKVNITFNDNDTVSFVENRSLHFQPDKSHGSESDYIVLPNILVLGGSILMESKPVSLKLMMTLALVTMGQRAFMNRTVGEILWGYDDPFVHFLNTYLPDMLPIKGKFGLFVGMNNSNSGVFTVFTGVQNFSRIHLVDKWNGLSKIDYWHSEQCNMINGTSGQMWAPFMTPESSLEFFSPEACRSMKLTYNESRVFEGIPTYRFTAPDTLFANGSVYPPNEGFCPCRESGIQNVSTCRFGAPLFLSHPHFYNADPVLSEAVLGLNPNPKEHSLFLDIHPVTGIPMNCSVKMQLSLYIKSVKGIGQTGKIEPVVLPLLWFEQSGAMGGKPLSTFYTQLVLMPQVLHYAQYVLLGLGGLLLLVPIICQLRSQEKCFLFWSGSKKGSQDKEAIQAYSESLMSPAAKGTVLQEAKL

[4] = biological target: Induced myeloid leukemia cell differentiation protein Mcl-1 (Homo sapiens, UniProt Q07820); type: functional
HeLa = test: HeLa cell cytotoxicity, dose response, cytotoxicity control, 24 h, cherry-picked samples (AID 504726); type: functional, cell-based; conditions: Homo sapiens;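 note: potency for cytotoxicity as loss of luminescence signal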
[5] = biological target: C-C chemokine receptor type 6 (Homo sapiens, UniProt P51684); test: CCR6 receptor antagonists, dose response, cell-based, luminescent beta-arrestin readout (AID 504728); type: functional
Beta-galactosidase = Beta-galactosidase (Escherichia coli, UniProt Q8VNN2); test: beta-galactosidase enzyme inhibitors and activators, dose response, artefact control for CCR6 antagonist project, biochemical, E. coli enzyme, set 3 (AID 504712); type: functional
[6] = biological target: Eukaryotic translation initiation factor 4E (Mus musculus, UniProt P63073); test: eIF4E–eIF4G protein interaction inhibitors, dose response, biochemical, TR-FRET (AID 855); type: functional;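 note: potency for disrupting eIF4E binding to eIF4GI seen as loss of FRET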
Hexokinase HKDC1 = biological target: T2, Hexokinase HKDC1 (Homo sapiens, UniProt Q2TB90); test: HKDC1 hexokinase inhibitors, dose response, biochemical, W721R variant (AID 504729); type: functional
T2 sequence (Q2TB90 whole entry): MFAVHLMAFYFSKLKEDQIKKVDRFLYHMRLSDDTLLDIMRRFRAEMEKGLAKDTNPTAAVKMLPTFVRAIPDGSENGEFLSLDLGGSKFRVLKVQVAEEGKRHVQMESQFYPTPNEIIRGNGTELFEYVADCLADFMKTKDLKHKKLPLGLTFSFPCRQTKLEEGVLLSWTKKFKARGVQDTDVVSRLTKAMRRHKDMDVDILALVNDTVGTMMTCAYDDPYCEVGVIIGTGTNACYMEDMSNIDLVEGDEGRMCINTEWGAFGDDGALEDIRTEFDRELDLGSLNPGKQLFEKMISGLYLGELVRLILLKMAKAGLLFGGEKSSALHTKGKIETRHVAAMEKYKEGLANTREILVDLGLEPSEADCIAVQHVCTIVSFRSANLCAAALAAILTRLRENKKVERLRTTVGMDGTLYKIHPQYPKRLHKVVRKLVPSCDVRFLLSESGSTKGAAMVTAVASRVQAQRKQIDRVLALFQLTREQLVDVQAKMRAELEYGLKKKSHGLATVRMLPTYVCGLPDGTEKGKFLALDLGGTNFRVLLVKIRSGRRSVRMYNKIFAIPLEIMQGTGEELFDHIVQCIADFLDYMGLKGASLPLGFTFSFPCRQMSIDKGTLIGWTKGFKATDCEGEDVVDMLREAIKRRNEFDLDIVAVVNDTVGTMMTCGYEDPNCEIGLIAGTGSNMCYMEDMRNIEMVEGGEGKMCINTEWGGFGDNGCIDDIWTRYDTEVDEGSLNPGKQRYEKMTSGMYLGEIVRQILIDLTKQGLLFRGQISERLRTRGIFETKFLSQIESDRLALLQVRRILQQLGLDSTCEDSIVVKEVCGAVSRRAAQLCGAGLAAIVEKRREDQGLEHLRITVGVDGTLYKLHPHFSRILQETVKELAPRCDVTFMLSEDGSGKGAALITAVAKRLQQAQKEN

[7] = biological target: DNA damage-inducible transcript 3 protein (Mus musculus, UniProt P35639); type: functional, Cricetulus griseus
DNA damage-inducible transcript 3 protein, sequence (P35639 whole entry): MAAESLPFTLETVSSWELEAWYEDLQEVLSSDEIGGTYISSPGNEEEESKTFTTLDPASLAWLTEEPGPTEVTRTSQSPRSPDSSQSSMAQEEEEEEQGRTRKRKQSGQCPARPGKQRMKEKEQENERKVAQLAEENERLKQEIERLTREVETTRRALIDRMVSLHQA

INS1 = test: beta cell apoptosis inhibitors, cytokine rescue, dose response, luminescence, retest (AID 449756); type: functional, cell-based; conditions: Rattus norvegicus;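 note: cell death triggered by IL-1 beta plus TNF-alpha plus IFN-gamma mixture; protective hits raise ATP signal compared with cytokine alone wells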
[8] = biological target: Guanyl-specific ribonuclease T1 (Aspergillus oryzae (strain ATCC 42149 / RIB 40), UniProt P00651); test: RNase T1 inhibitors, dose response, counter-screen for TPT1 inhibitor project, biochemical, fluorescence polarization, 1536-well (AID 2167)
[9] = biological target: T3, Voltage-gated N-type calcium channel alpha-1B subunit/Amyloid beta A4 precursor protein-binding family A member 1 (Homo sapiens, UniProt Q00975+Q02410); type: protein assay
T3 sequence (Q00975 whole entry): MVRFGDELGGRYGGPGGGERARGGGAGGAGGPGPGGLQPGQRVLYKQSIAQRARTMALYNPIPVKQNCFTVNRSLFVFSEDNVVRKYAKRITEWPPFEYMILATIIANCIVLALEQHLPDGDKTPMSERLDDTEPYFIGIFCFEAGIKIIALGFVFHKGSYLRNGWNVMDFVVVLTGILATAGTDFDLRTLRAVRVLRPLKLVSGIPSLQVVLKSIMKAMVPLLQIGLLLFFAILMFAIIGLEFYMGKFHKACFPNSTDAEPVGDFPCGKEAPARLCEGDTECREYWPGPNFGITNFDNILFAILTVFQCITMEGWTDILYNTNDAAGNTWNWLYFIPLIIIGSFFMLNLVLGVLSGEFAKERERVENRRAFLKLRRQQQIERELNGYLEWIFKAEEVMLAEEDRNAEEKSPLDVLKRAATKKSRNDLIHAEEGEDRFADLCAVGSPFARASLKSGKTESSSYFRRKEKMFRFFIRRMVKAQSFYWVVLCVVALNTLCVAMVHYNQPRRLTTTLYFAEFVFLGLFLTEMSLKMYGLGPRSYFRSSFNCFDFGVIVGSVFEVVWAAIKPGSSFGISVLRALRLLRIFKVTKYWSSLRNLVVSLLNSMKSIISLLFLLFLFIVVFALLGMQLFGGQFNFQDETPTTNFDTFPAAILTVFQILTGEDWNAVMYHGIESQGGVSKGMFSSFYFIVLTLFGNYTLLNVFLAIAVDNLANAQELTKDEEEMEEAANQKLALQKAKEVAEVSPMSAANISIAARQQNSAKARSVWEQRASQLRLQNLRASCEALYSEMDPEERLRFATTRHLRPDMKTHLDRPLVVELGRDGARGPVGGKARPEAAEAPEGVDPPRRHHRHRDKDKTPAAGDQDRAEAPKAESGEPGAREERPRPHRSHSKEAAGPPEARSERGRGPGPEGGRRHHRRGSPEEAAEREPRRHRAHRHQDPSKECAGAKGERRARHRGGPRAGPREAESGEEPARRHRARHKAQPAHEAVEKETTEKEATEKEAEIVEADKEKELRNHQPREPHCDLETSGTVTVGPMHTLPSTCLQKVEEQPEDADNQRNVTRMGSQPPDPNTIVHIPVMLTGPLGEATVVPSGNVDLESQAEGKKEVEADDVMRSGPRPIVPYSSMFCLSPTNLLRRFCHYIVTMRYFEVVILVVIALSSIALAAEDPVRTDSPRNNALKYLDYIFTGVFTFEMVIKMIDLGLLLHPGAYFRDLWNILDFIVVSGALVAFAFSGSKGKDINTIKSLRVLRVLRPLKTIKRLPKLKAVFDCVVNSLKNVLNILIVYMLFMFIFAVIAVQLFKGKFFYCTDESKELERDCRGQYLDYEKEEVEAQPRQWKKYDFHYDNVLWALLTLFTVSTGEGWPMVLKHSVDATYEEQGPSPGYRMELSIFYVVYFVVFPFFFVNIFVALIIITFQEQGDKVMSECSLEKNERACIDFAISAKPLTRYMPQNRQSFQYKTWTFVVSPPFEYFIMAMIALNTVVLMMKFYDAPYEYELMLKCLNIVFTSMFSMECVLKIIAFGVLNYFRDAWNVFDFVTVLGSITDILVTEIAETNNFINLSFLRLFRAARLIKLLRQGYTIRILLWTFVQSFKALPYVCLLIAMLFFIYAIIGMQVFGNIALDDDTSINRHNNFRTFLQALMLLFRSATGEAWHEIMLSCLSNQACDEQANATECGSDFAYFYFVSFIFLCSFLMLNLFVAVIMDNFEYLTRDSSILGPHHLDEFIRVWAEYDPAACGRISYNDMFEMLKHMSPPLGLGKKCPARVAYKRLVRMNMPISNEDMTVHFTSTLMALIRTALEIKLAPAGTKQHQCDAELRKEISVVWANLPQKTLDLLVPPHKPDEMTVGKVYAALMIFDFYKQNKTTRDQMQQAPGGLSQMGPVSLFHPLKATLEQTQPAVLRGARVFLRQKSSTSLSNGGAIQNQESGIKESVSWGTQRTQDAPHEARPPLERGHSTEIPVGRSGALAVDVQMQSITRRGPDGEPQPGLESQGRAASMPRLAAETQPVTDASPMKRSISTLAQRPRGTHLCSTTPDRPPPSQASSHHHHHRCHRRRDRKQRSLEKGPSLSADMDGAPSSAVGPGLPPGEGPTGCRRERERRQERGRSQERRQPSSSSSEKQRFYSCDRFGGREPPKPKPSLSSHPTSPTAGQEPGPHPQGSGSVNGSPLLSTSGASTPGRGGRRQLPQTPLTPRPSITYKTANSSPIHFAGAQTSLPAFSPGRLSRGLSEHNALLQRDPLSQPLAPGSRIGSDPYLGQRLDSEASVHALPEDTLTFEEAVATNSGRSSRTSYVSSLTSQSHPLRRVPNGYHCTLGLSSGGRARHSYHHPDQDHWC
T3 sequence (Q02410 whole entry): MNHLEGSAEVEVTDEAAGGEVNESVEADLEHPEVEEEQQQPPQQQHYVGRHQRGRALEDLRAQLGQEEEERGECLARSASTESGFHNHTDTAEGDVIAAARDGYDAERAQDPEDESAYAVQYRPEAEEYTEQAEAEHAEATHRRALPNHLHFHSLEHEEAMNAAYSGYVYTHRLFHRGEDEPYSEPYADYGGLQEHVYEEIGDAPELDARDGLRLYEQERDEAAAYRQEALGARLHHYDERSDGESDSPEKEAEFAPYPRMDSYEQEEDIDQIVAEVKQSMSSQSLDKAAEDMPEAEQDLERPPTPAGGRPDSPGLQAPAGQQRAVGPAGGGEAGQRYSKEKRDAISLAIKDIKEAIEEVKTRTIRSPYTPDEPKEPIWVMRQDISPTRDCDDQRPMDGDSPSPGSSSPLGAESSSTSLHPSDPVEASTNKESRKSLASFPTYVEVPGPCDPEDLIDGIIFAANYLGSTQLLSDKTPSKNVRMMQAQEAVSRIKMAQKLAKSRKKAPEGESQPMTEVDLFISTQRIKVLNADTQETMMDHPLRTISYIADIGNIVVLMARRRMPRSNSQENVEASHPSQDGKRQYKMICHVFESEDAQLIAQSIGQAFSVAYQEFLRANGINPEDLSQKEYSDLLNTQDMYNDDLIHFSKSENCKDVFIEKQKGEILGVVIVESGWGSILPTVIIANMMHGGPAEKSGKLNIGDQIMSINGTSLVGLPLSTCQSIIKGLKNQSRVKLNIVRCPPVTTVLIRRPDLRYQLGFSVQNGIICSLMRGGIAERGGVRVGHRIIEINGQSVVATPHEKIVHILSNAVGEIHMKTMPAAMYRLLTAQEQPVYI

Large T antigen = Large T antigen (Simian virus 40, UniProt P03070); type: functional, Betapolyomavirus macacae;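 note: Confirmatory-stage PubChem screen for compounds that inhibit SV40 T antigen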
[10] = biological target: Likely tRNA 2'-phosphotransferase (Candida albicans (strain SC5314 / ATCC MYA-2876) (Yeast), UniProt Q5A7N4); test: TPT1 tRNA phosphotransferase inhibitors, dose response, biochemical, fluorescence polarization (AID 2160)
[11] = biological target: T3, Voltage-gated N-type calcium channel alpha-1B subunit/Amyloid beta A4 precursor protein-binding family A member 1; type: protein assay; remark: listed apart in the source
[12] = biological target: Dual specificity protein phosphatase 3 (Homo sapiens, UniProt P51452); test: VHR1 inhibitor Ki determination, SAR follow-up, biochemical, colorimetric (AID 2004)
Dual specificity protein phosphatase 3, sequence (P51452 whole entry): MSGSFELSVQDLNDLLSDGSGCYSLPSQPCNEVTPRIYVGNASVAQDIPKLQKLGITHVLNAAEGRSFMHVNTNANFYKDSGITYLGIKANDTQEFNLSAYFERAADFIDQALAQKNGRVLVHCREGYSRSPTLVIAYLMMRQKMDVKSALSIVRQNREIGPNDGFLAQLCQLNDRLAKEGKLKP

[13] = biological target: Eukaryotic translation initiation factor 4H (Homo sapiens, UniProt Q15056); test: human eIF4H binding inhibitors, primary screen, translation initiation inhibitor project, biochemical, uHTS, fluorescence polarization (AID 2012)
[14] = biological target: Polyadenylate-binding protein 1 (Homo sapiens, UniProt P11940); test: PABP poly(A) RNA binding inhibitors, primary screen, biochemical, fluorescence polarization, uHTS (AID 2014)
[15] = biological target: DNA dC->dU-editing enzyme APOBEC-3A (Homo sapiens, UniProt P31941); test: Dose Response confirmation of small molecule APOBEC3A DNA Deaminase Inhibitors via a fluorescence-based single-stranded DNA deaminase assay. [Related pubchem assays (depositor defined):AID493011, AID493024]; type: functional
[16] = biological target: DNA dC->dU-editing enzyme APOBEC-3G (Homo sapiens, UniProt Q9HC16); type: functional;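 note: Dose-response counterscreen measuring inhibition of APOBEC3G DNA deaminase activity, run while confirming APOBEC3A inhibitors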
[17] = biological target: T4, Eukaryotic translation initiation factor 2-alpha kinase 3 (Homo sapiens, UniProt Q9NZJ5); test: Dose response cell-based high-throughput screening assay to measure PERK inhibition. [Related pubchem assays: 1416 ]; type: functional
T4 sequence (Q9NZJ5 whole entry): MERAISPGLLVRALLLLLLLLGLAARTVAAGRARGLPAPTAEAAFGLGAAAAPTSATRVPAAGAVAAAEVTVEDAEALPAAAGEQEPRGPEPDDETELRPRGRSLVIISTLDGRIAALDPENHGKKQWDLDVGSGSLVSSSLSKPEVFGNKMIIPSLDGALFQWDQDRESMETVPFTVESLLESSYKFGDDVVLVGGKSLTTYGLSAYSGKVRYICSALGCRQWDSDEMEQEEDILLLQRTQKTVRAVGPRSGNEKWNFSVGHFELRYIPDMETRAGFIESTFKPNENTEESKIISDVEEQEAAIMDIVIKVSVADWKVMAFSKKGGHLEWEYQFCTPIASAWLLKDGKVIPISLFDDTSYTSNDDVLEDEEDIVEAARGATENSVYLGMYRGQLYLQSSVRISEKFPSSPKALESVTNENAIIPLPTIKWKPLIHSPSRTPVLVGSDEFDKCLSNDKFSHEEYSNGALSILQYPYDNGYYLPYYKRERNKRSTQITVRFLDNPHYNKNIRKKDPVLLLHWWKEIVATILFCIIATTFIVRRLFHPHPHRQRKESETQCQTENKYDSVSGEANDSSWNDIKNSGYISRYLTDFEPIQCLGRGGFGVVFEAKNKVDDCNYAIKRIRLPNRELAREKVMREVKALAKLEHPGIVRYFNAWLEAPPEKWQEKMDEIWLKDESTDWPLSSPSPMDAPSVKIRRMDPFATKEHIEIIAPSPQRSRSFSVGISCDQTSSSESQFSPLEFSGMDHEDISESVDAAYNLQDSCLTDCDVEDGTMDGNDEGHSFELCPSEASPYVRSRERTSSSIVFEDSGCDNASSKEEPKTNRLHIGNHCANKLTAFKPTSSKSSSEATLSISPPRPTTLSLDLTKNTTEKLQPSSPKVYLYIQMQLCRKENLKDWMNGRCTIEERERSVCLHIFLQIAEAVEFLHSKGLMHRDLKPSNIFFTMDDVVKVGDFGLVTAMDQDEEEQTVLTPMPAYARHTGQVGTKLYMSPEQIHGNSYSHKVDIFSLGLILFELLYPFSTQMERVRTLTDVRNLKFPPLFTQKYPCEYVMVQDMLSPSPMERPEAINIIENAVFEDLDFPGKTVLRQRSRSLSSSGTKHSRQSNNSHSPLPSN

[18] = biological target: T4, Eukaryotic translation initiation factor 2-alpha kinase 3; test: Counterscreen assay for PERK inhibitors: Dose response cell-based high throughput screening assay to measure inhibition of PERK at 6 hours. [Related pubchem assays: 1522, 1416 ]; type: functional
Prothrombin = Prothrombin (Homo sapiens, UniProt P00734); test: Thrombin 1536 HTS Dose Response Confirmation. [Related pubchem assays: 1046 (Thrombin 1536 HTS; hits were confirmed in this assay)]; type: functional
Coagulation factor XII = biological target: T5, Coagulation factor XII (Homo sapiens, UniProt P00748); type: functional;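 note: activated factor XIIa alpha cleaving a fluorogenic AMC peptide substrate; inhibitor potency from loss of enzyme activity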
T5 sequence (P00748 whole entry): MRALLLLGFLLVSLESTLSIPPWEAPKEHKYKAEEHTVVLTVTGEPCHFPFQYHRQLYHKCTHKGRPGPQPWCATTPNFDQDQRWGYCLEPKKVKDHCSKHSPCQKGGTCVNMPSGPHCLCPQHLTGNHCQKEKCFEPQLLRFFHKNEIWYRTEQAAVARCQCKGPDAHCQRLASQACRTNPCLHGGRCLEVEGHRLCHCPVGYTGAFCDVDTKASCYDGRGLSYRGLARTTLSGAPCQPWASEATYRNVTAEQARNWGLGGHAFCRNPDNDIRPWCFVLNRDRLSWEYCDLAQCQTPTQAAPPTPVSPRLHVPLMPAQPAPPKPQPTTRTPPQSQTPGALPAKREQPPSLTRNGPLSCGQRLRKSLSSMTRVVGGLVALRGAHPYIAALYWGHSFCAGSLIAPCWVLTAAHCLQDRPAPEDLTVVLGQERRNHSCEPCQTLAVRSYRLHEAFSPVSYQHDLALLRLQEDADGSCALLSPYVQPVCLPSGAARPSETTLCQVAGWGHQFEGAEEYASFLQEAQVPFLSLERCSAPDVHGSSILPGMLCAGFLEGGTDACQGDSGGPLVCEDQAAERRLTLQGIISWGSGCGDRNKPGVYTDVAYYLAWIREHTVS

X-box-binding protein 1 = X-box-binding protein 1 (Homo sapiens, UniProt P17861); type: functional, Cricetulus griseus;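 note: confirmatory dose-response counter-screen serving a CHOP assay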
Genome polyprotein = Genome polyprotein (dengue virus type 2, UniProt P29990); test: Dengue-2 NS5 methyltransferase inhibitors, primary screen, biochemical, confirmation dose response (AID 588689); type: functional
Fatty acid synthase [19] = biological target: T6, Fatty acid synthase (Homo sapiens, UniProt P49327); test: FAS thioesterase domain inhibitors, dose response, biochemical, endpoint fluorescence intensity, uHTS hits (AID 624327); type: functional;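 note: fluorescence from hydrolysis of an O-methyl fluorescein acyl ester substrate by the enzyme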
Fatty acid synthase [20] = biological target: T6, Fatty acid synthase; test: FAS thioesterase domain inhibitors, dose response, biochemical, kinetic fluorescence intensity (AID 624326); type: functional;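 note: rate of fluorescence rise from hydrolysis of a fluorogenic O-methyl fluorescein ester substrate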
[21] = biological target: T7, Protein phosphatase methylesterase 1 (Homo sapiens, UniProt Q9Y570); test: Late stage results from the probe development effort to identify inhibitors of the protein methylesterase PME-1: Gel-based Activity-Based Protein Profiling (ABPP) IC50: Purified enzyme.; type: functional
T7 sequence (Q9Y570 whole entry): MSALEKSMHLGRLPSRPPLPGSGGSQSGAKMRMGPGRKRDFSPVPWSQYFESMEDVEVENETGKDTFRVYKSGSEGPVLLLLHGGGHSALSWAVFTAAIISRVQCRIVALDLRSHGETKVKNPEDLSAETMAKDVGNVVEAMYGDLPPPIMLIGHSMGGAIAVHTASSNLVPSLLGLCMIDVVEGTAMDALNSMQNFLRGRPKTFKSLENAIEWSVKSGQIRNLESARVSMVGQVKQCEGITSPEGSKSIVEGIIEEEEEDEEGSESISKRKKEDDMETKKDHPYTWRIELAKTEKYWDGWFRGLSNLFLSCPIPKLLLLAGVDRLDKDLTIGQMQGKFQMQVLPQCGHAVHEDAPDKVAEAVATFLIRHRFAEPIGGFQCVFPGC

[22] = biological target: T7, Protein phosphatase methylesterase 1; test: PME-1 inhibitor potency by in-gel ABPP, dose response, selectivity assay for PME-1 inhibitor project, cell lysate, mouse brain cytosol, FP-rhodamine, panel member PME-1 Assay Panel member description: Inhibition of endogenously expressed PME-1 (AID 2366)

IC50 [1]: 3.7 µM (active)
IC50 [2]: 1.1 µM (active)
SMILES: CCOC(=O)c1cccc(-n2ncc(Cl)c(Oc3ccc(OC)cc3)c2=O)c1

AC50 [3]: 1.56 µM (active)
SMILES: CC(OC(=O)c1cccc(NS(C)(=O)=O)c1)C(=O)Nc1ccc(N2CCOCC2)cc1 (configuration not stated)

SMILES: Cc1ccc(S(=O)(=O)/N=C2/C=C(Sc3nc[nH]n3)C(=O)c3ccccc32)cc1
IC50 [4]: 19.7 µM (active)
AC50 (HeLa): 23.1 µM (active)
IC50 [5]: 3.12 µM (active)
IC50 (Beta-galactosidase): > 66.6 µM (inactive)
IC50 [6]: > 64 µM (inactive)
IC50 (Hexokinase HKDC1): 1.8 µM (active)
Absolute IC50 (CHOP) [7]: 10 µM
AC50 (INS1): 6.84 µM (active)

IC50 [8]: > 55.7 µM (not active)
IC50 [9]: > 56.8 µM (not active)
IC50 (Large T antigen): 7.93 µM (active)
IC50 [10]: 0.142 µM (active)
IC50 [11]: 4.68 µM (active)
SMILES: CC1=C(C#N)C(=O)N(C2CCS(=O)(=O)C2)C(=O)/C1=C\c1ccco1 (configuration not stated)

SMILES: S=C(NCCN1CCOCC1)Nc1ccccc1
Ki [12]: 64.3 µM (inactive)

SMILES: COCCN1C(NCCCOC(C)C)=N[C@@H](c2ccccc2)C(C(=O)OC)=C1C
IC50 [13]: > 100 µM (inactive)
IC50 [14]: 8.01 µM (active)
IC50 [15]: 5.67 µM (active)
IC50 [16]: 4.32 µM (active)

EC50 [17]: > 55.7 µM (not active)
EC50 [18]: > 55.7 µM (not active)
SMILES: CC(=O)c1ccc(S(=O)(=O)N2CCN(CC#N)CC2)cc1

SMILES: Cc1ccc(C)c(S(=O)(=O)ON2C(=O)c3ccccc3C2=O)c1
IC50 (Prothrombin): 1.57 µM (active)
IC50 (Coagulation factor XII): 2.59 µM (active)
Absolute IC50 (CHOP) [7]: 10 µM
Absolute IC50 (XBP1) (X-box-binding protein 1): 10 µM
IC50 (Genome polyprotein): > 100 µM (active)
IC50 (Fatty acid synthase [19]): 1.72 µM (active)
IC50 (Fatty acid synthase [20]): 3.7 µM (active)

IC50 [21]: > 20 µM (not active)
IC50 [22]: > 20 µM (inactive)
SMILES: CS(=O)(=O)C(C#N)Cc1cccn1S(=O)(=O)c1ccccc1 (configuration not stated)

— ChEMBL document CHEMBL1201862, “PubChem BioAssay data set” (2004)
